This assay concerns CD2F1 mice, L1210 leukemia ip, survival T/C. In words: NCI In Vivo Anticancer Drug Screen. Data for tumor model L1210 Leukemia (intraperitoneal) in CD2F1 (CDF1) mice. Particulars: higher = longer survival. Put shortly:
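Tumor-bearing mice (transplanted tumor) were split into treated and vehicle control groups, and the measured endpoint of each treated group was divided by that of its vehicle controls.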

[1] abbreviates: endpoint: mean survival time, dose: 100.0 mg/kg/injection, schedule: Q04DX002 (ip), vehicle: saline with Tween-80.
[2] abbreviates: endpoint: mean survival time, dose: 100.0 mg/kg/injection, schedule: Q01DX009 (ip), vehicle: saline with Tween-80.
The mark [3] stands for this setting: endpoint: mean survival time, dose: 100.0 mg/kg/injection, schedule: Q04DX003 (ip), vehicle: saline with Tween-80.
The mark [4] stands for this setting: endpoint: mean survival time, dose: 200.0 mg/kg/injection, schedule: Q01DX009 (ip), vehicle: saline with Tween-80.
Where [5] appears, read: endpoint: mean survival time, dose: 200.0 mg/kg/injection, schedule: Q04DX003 (ip), vehicle: saline with Tween-80.
[6] abbreviates: endpoint: mean survival time, dose: 400.0 mg/kg/injection, schedule: Q01DX009 (ip), vehicle: saline with Tween-80.
[7] abbreviates: endpoint: mean survival time, dose: 400.0 mg/kg/injection, schedule: Q04DX003 (ip), vehicle: saline with Tween-80.

Several values for one entry are separate records, joined by “and”; a condition that tells them apart may be missing. Identical values can stand only once. Toxic doses and inconclusive results are not listed.

We go through 18 compounds from PubChem BioAssay AID256 (DTP/NCI, 2004).

As to `Nc1n[nH]c2ccccc12`, the T/C is 101 % of control and 103 % of control and 105 % of control (endpoint: median survival time, dose: 25.0 mg/kg/injection, schedule: Q01DX009 (ip), vehicle: acid diluted with saline); 101 % of control and 108 % of control and 111 % of control (endpoint: median survival time, dose: 50.0 mg/kg/injection, schedule: Q01DX009 (ip), vehicle: acid diluted with saline); 107 % of control (endpoint: median survival time, dose: 100.0 mg/kg/injection, schedule: Q01DX009 (ip), vehicle: acid diluted with saline); 154 % of control and 158 % of control (endpoint: median survival time, dose: 200.0 mg/kg/injection, schedule: Q01DX009 (ip), vehicle: acid diluted with saline); 158 % of control (endpoint: median survival time, dose: 400.0 mg/kg/injection, schedule: Q01DX009 (ip), vehicle: acid diluted with saline).
In the case of `CCC[P+](c1ccccc1)(c1ccccc1)c1ccccc1`, the T/C was 106 % of control (endpoint: mean survival time, dose: 3.13 mg/kg/injection, schedule: Q01DX009 (ip), vehicle: saline); 113 % of control (endpoint: mean survival time, dose: 6.25 mg/kg/injection, schedule: Q01DX009 (ip), vehicle: saline); 120 % of control (endpoint: mean survival time, dose: 12.5 mg/kg/injection, schedule: Q01DX009 (ip), vehicle: saline); 117 % of control (endpoint: mean survival time, dose: 25.0 mg/kg/injection, schedule: Q01DX009 (ip), vehicle: saline); 93 % of control (endpoint: mean survival time, dose: 75.0 mg/kg/injection, schedule: Q01DX001 (ip), vehicle: other).
As to `CC(C)CP(=O)(CC(C)C)CC(C)C`, the T/C (endpoint: mean survival time, dose: 1.56 mg/kg/injection, schedule: Q04DX003 (ip), vehicle: saline with Tween-80) is 98 % of control; the T/C (endpoint: mean survival time, dose: 3.13 mg/kg/injection, schedule: Q04DX003 (ip), vehicle: saline with Tween-80) was 98 % of control; the T/C (endpoint: mean survival time, dose: 6.25 mg/kg/injection, schedule: Q04DX003 (ip), vehicle: saline with Tween-80) is 101 % of control.
As for `CCCCSCCN`, the T/C was 94 % of control (endpoint: mean survival time, dose: 25.0 mg/kg/injection, schedule: Q04DX002 (ip), vehicle: saline with Tween-80); 94 % of control (endpoint: mean survival time, dose: 50.0 mg/kg/injection, schedule: Q04DX002 (ip), vehicle: saline with Tween-80); 102 % of control under setting [1].
With `C1CCC2[N-]CCCC2C1.C1CCC2[N-]CCCC2C1.[Cl][Pt+2][Cl]` (centres undefined), the T/C is, setting by setting: (endpoint: median survival time, dose: 3.12 mg/kg/injection, schedule: Q04DX003 (ip), vehicle: saline) 102 % of control; (endpoint: median survival time, dose: 6.25 mg/kg/injection, schedule: Q04DX003 (ip), vehicle: saline) 98 % of control; (endpoint: median survival time, dose: 12.5 mg/kg/injection, schedule: Q04DX003 (ip), vehicle: saline) 101 % of control; (endpoint: median survival time, dose: 25.0 mg/kg/injection, schedule: Q04DX003 (ip), vehicle: saline) 105 % of control; (endpoint: median survival time, dose: 50.0 mg/kg/injection, schedule: Q04DX003 (ip), vehicle: saline) 103 % of control; (endpoint: median survival time, dose: 100.0 mg/kg/injection, schedule: Q04DX003 (ip), vehicle: saline) 94 % of control. Where the note is “endpoint: median survival time, dose: 200.0 mg/kg/injection, schedule: Q04DX003 (ip), vehicle: saline”, the T/C is 100 % of control.
Consider `CC/C(=C(/CC)c1ccc(O)cc1)c1ccc(O)cc1`, for which the T/C is, setting by setting: (endpoint: median survival time, dose: 12.5 mg/kg/injection, schedule: Q01DX009 (sc), vehicle: steriod suspending solution) 114 % of control and 105 % of control; (endpoint: median survival time, dose: 25.0 mg/kg/injection, schedule: Q01DX009 (sc), vehicle: steriod suspending solution) 114 % of control and 100 % of control; (endpoint: median survival time, dose: 50.0 mg/kg/injection, schedule: Q01DX009 (sc), vehicle: steriod suspending solution) 114 % of control and 105 % of control; (endpoint: median survival time, dose: 100.0 mg/kg/injection, schedule: Q01DX009 (sc), vehicle: steriod suspending solution) 100 % of control.
As for `CC(=O)Oc1cc2c(cc1C(C)C)CCC1C(C)(C#N)CCCC21C` (centres undefined), the T/C under setting [2] is 90 % of control; the T/C under setting [3] is 89 % of control; the T/C under setting [4] is 95 % of control; the T/C under setting [5] was 87 % of control; the T/C under setting [6] was 92 % of control; the T/C under setting [7] was 98 % of control.
Turning to `CC(=O)OC1CCC2(C)C(=CCC3C2CCC2(C)C(C(C)CCC(=O)O)CCC32)C1` (centres undefined), the T/C runs as follows: under setting [2], 95 % of control; under setting [4], 95 % of control; under setting [6], 96 % of control.
As to `O=C(O)CN(CC(=O)O)CC(O)CN(CC(=O)O)CC(=O)O`, the T/C (endpoint: mean survival time, dose: 100.0 mg/kg/injection, schedule: Q01DX001 (ip), vehicle: saline) was 98 % of control; the T/C (endpoint: mean survival time, dose: 200.0 mg/kg/injection, schedule: Q01DX001 (ip), vehicle: saline) was 105 % of control; the T/C (endpoint: mean survival time, dose: 400.0 mg/kg/injection, schedule: Q01DX001 (ip), vehicle: saline) is 93 % of control.
Take `CC(C)(C)c1cc(O)c(O)c(C(C)(C)C)c1`: the T/C is 101 % of control (endpoint: mean survival time, dose: 100.0 mg/kg/injection, schedule: Q04DX003 (ip), vehicle: other) and 95 % of control (endpoint: mean survival time, dose: 200.0 mg/kg/injection, schedule: Q04DX003 (ip), vehicle: other).
Turning to `COc1cc2c(c3ccccc13)CCCC2=O`, the T/C reads like this: under setting [2], 95 % of control; under setting [4], 92 % of control; under setting [6], 97 % of control.
Regarding `NC(N)=N/N=C/c1cc(Cl)cc(Cl)c1O`, the T/C is, setting by setting: (endpoint: mean survival time, dose: 18.8 mg/kg/injection, schedule: Q01DX009 (ip), vehicle: saline) 108 % of control; (endpoint: mean survival time, dose: 18.8 mg/kg/injection, schedule: Q04DX003 (ip), vehicle: saline) 106 % of control; (endpoint: mean survival time, dose: 37.5 mg/kg/injection, schedule: Q01DX009 (ip), vehicle: saline) 109 % of control; (endpoint: mean survival time, dose: 37.5 mg/kg/injection, schedule: Q04DX003 (ip), vehicle: saline) 112 % of control; (endpoint: mean survival time, dose: 75.0 mg/kg/injection, schedule: Q01DX009 (ip), vehicle: saline) 94 % of control; (endpoint: mean survival time, dose: 75.0 mg/kg/injection, schedule: Q04DX003 (ip), vehicle: saline) 114 % of control.
Regarding `CCCCCCCCCCCCCCCCC(C(=O)O)C(O)(CC(=O)O)C(=O)O` (centres undefined), the T/C reads like this: (endpoint: mean survival time, dose: 25.0 mg/kg/injection, schedule: Q01DX009 (ip), vehicle: saline with Tween-80) 90 % of control; (endpoint: mean survival time, dose: 50.0 mg/kg/injection, schedule: Q01DX009 (ip), vehicle: saline with Tween-80) 88 % of control.
On to `CC(NNC(=S)N(C)C1CCCCC1)c1cc2ccccc2cn1` (centres undefined), for which the T/C is 103 % of control (endpoint: median survival time, dose: 12.5 mg/kg/injection, schedule: Q01DX005 (ip), vehicle: saline with Tween-80); 97 % of control (endpoint: median survival time, dose: 12.5 mg/kg/injection, schedule: Q01DX005 (ip), vehicle: saline); 120 % of control (endpoint: median survival time, dose: 25.0 mg/kg/injection, schedule: Q01DX005 (ip), vehicle: saline with Tween-80); 102 % of control and 109 % of control (endpoint: median survival time, dose: 25.0 mg/kg/injection, schedule: Q01DX005 (ip), vehicle: saline); 90 % of control (endpoint: median survival time, dose: 50.0 mg/kg/injection, schedule: Q01DX005 (ip), vehicle: saline with Tween-80); 113 % of control and 114 % of control (endpoint: median survival time, dose: 50.0 mg/kg/injection, schedule: Q01DX005 (ip), vehicle: saline).
On to `CN(N=O)C(=O)NCC1CCC(CNC(=O)N(C)N=O)CC1` (centres undefined), for which the T/C by setting is: (endpoint: mean survival time, dose: 100.0 mg/kg/injection, schedule: Q01DX001 (ip), vehicle: carboxymethylcellulose (CMC)) 96 % of control; (endpoint: mean survival time, dose: 200.0 mg/kg/injection, schedule: Q01DX001 (ip), vehicle: carboxymethylcellulose (CMC)) 88 % of control and 98 % of control; (endpoint: mean survival time, dose: 300.0 mg/kg/injection, schedule: Q01DX001 (ip), vehicle: carboxymethylcellulose (CMC)) 98 % of control and 93 % of control; (endpoint: mean survival time, dose: 400.0 mg/kg/injection, schedule: Q01DX001 (ip), vehicle: carboxymethylcellulose (CMC)) 101 % of control and 108 % of control; (endpoint: mean survival time, dose: 500.0 mg/kg/injection, schedule: Q01DX001 (ip), vehicle: carboxymethylcellulose (CMC)) 106 % of control and 107 % of control; (endpoint: mean survival time, dose: 600.0 mg/kg/injection, schedule: Q01DX001 (ip), vehicle: carboxymethylcellulose (CMC)) 104 % of control. For the same compound, the T/C was 111 % of control (endpoint: mean survival time, dose: 800.0 mg/kg/injection, schedule: Q01DX001 (ip), vehicle: carboxymethylcellulose (CMC)) and 112 % of control (endpoint: mean survival time, dose: 1000.0 mg/kg/injection, schedule: Q01DX001 (ip), vehicle: carboxymethylcellulose (CMC)).
For `Cc1ccc(NCC(O)C(O)C(O)CO)cc1C` (centres undefined), the T/C under setting [1] is 106 % of control and the T/C (endpoint: mean survival time, dose: 200.0 mg/kg/injection, schedule: Q04DX002 (ip), vehicle: saline with Tween-80) is 103 % of control.
In the case of `CCCC/C=C\C=C/CCCC`, the T/C was 102 % of control (endpoint: mean survival time, dose: 100.0 mg/kg/injection, schedule: Q01DX001 (ip), vehicle: saline with Tween-80); 102 % of control (endpoint: mean survival time, dose: 200.0 mg/kg/injection, schedule: Q01DX001 (ip), vehicle: saline with Tween-80); 94 % of control (endpoint: mean survival time, dose: 400.0 mg/kg/injection, schedule: Q01DX001 (ip), vehicle: saline with Tween-80).
Regarding `COC(C(O)C=O)C(O)C(O)CO` (centres undefined), the T/C under setting [3] is 96 % of control, the T/C under setting [5] was 101 % of control and the T/C under setting [7] was 95 % of control.
